Values of other authors in patent publication US20250099634A1, “METHOD OF TREATING CANCER” (Novartis AG, priority 2023, published 2025).

System: G1-2 midgut and pancreatic NET
Conditions: 120 mg/month, cited from earlier work

CC(C)[C@@H]1NC(=O)[C@H](CCCCN)NC(=O)[C@@H](Cc2c[nH]c3ccccc23)NC(=O)[C@H](Cc2ccc(O)cc2)NC(=O)[C@@H](NC(=O)[C@H](N)Cc2ccc3ccccc3c2)CSSC[C@@H](C(=O)N[C@H](C(N)=O)[C@@H](C)O)NC1=O [lanreotide]
HR for progression or death with lanreotide vs. placebo (95% CI 0.30 to 0.73): 0.47
median PFS: not reached
